One assay has as its system SUM159 cells. The assay is described as follows: MitoSOX red oxidation, SUM159. In kind it is cell-based, human. The procedure: FIGS. 4A-4C: MitoSOX oxidation in SUM159, MDA-MB231 and HMECs cells treated with BSO, DTPP and AUR. Asynchronously growing cultures of SUM159 (Panel A) MDA-MB231 (Panel B) and HMECs (Panel C) were plated and treated as described in FIG. 1. Monolayer cultures were harvested and trypsinized, washed once with PBS and labeled 20 minutes with 2 μM MitoSOX (in 0.1% DMSO) in PBS containing 5 mM pyruvate at 37° C. Each sample was then analyzed for the Mean fluorescence Intensity (MFI) of 10,000 cells by flow cytometry. Samples were assayed in triplicate; mean±1 SD of 1 experiment containing 3 treatment dishes per group (n=3), * or ^p<0.001 as compared to Control.
MitoSOX™ red oxidation to estimate mitochondrial superoxide production: To determine if DTPP can alter steady-state levels of superoxide originating from mitochondria in SUM159, MDA-MB231 and HMEC cells, the cationic superoxide sensitive dye, MitoSOX™red (Molecular Probes), was used. Cells were plated and treated as described earlier in clonogenic survival experiment. After the exposure, cells were trypsinized and washed with 5 mM/L pyruvate containing PBS once then labeled with MitoSOX™red (2 μM, in 0.1% DMSO, 20 minutes) at 37° C. After labeling, cells were kept on ice. Samples were analyzed using a FACScan flowcytometer (Becton Dickinson Immunocytometry System, INC., Mountain View, Calif.) (excitation 488 nm, emission 585 nm band-pass filter). The mean fluorescence intensity of 10,000 cells was analyzed in each sample and corrected for autofluorescence from unlabeled cells. The MFI data was normalized to control levels.

For assay [1], the system named is Human thioredoxin-1 (hTrx-1). Put plainly: Thioredoxin native redox western blot. The format is cell-based. As to conditions: SUM159. The method, then:
FIG. 7: Human thioredoxin-1 (hTrx-1) native redox western blot analysis of BSO, DTPP and AUR treated SUM159. Asynchronously growing cultures of SUM159 were plated and treated as described in FIG. 1. Cells were harvested and scraped in PBS at 4° C. Whole cell homogenates were used for native gel redox western blot analysis of […].
Thioredoxin Redox Western: The human thioredoxin-1 protein level was determined by Thioredoxin redox western. Approximately 2-3 million treated or untreated SUM159 cells were lysed in G-lysis buffer (50 mM Tris-HCl, pH 8.3, 3 mM EDTA, 6 M guanidine-HCl, 0.5% Triton X-100) containing 50 mM iodoacetic acid (pH 8.3). The lysate was incubated in the dark for thirty minutes. The lysates were then centrifuged in G-25 microspin columns (GE Healthcare). Protein was then quantified, from the eluent by performing a Bradford protein assay, as previously described (Bradford, M. M. A rapid and sensitive method for the quantitation of microgram quantities of protein utilizing the principle of protein-dye binding. Anal Biochem 72:248-254; 1976). Equal amounts of protein were then added to a 15% acrylamide native gel. The gel was then run at 100 V for approximately 1.5 h. The proteins contained in the gel were then transferred to a nitrocellulose membrane (BIORAD Labs), using a semi-dry transfer protocol. The nitrocellose membrane was then washed in PBST (Phosphate buffered saline with 0.1% Tween) before being incubated at 4 overnight with the primary antibody, 1:1000 goat anti-hTrx-1 (American Diagnostica, Inc.) in PBST with 2% BSA. […]
(Immunoblotting shows a protein as a band on a membrane.)

In the next assay the test system is Sum159 xenograft tumors. The assay is described as follows: ALDH+ cells in Sum159 xenografts in vivo. To be noted: 100 μM DTPP in drinking water 2 weeks; BSO 675 mg/kg i.p.; Au 2.7 mg/kg i.p. On the set-up: species or system nude mice. The method, then: FIGS. 1A-D: BSO, DTPP and AUR treated SUM159, MDA-MB231 and HMEC Clonogenic survival. In Panel A (SUM 159), B (MDA-MB231) and C(HMEC), 150,000 cells/dish SUM159 or MDA-MB231 and 300,000 cells/dish were plated in 60 mm tissue culture dishes. After 48 hours, cells were given fresh complete HMECs media and treated with 100 μM BSO+/1 μM DTPP for 24 hours. 500 nM AUR were added 15 mins before the trypsinization of cells for clonogenic survival assay. In panel A-C, The error bars represent mean±1 SD of n=1 treatment dishes done in 3 separate experiments where each treatment dish was used to prepare 6-10 replicate cloning dishes for analysis. *p<0.001 as compared to Control. […] Mice growing Sum159 xenograft tumors were treated with 100 μM DTPP in drinking water for 2 weeks followed by i.p. injections of BSO 675 mg/kg followed in 2 hrs with Au 2.7 mg/kg. The day following injections tumors were harvested, digested and stained for ALDH positive cells. Each bar represents an average of at least three tumors. Error bars are SEM. *p<0.05 vs. control.
To address this question, SUM159 were treated with these drugs as described in FIG. 1, and aldehyde dehydrogenase (ALDH) activity, a marker of cancer stem cells was examined by ALDEFLUOR assay. […]

On to `CCCCS(=N)(=O)CCC(N)C(=O)O` [BSO, L-buthionine-[S,R]-sulfoximine, reference compound], for which the “change in MitoSOX oxidation, in words” value with SUM159 cells (SUM159) was “did not exhibit any change in MitoSOX oxidation”. The “ratio of oxidized thioredoxin to total thioredoxin, in words” value in assay [1] is “no ratio change”. In addition, the “effect on ALDH positive cells in xenografts, in words” value in the assay on Sum159 xenograft tumors is reported as “decrease of ALDH+cells”.
Turning to `CCCCCCCCCC[P+](c1ccccc1)(c1ccccc1)c1ccccc1` [DTPP, Decyl-Triphenylphosphonium], the “increase in MitoSOX red oxidation relative to control” value with SUM159 cells (SUM159, 1 μM DTPP, 100 μM BSO 24 h, 500 nM AUR 15 min) worked out at 9 fold. Besides, in the assay on SUM159 cells (SUM159 vs HMEC), the “total amount of mitochondrial O2.- of SUM159 cells relative to HMECs after DTPP” value turned out to be 2 fold.
Consider `CC[PH](CC)(CC)[Au][S][C@@H]1O[C@H](COC(C)=O)[C@@H](OC(C)=O)[C@H](OC(C)=O)[C@H]1OC(C)=O` [AUR, S-triethylphosphinegold(I)-2,3,4,6-tetra-O-acetyl-1-thio-β-D-glucopyranoside], for which the “change in MitoSOX oxidation, in words” value in the assay with SUM159 cells (SUM159) was “did not exhibit any change in MitoSOX oxidation”. The “increase of ratio of oxidized thioredoxin to total thioredoxin compared to control” value in assay [1] is recorded as “around 2 fold”. Moreover, the “increase of the ratio of oxidized Trx-1 to reduced Trx-1” value in assay [1] (15 min AUR) amounted to 2 fold. Moreover, the “effect on ALDH positive cells in xenografts, in words” value in the assay with Sum159 xenograft tumors is recorded as “decrease of ALDH+cells”.

Values taken from patent US9801922B2, “Compositions and methods of treating cancer” (UNIVERSITY OF IOWA RESEARCH FOUNDATION, priority 2011, dated 2017).
